Assay results taken from US9623063B2, “Extracts from Ajuga reptans cell lines, their preparation and use” (I.R.B. ISTITUTO DI RICERCHE BIOTECNOLOGICHE S.r.l., priority 2005, dated 2017).

Legend:
A549 cells (ATCC-CCL185) = test: BSO-induced oxidative stress, ROS by DCF fluorimetry in A549 cells; type: cell-based, human; settings: with BSO, control without BSO = 100
Experimental: 10×10^5 A549 cells (ATCC-CCL185) have been seeded into wells with 3 ml of DMEM/F12K HAM medium (Sigma-Aldrich) with 10% FCS and incubated at 37° C. in a 5% CO2, water vapour saturated atmosphere. After 24 hours the culture medium is replaced by medium supplemented with BSO, which is left in contact with the cells for 20 hours. The medium is once again replaced with medium containing BSO in the presence or absence of the test compound. After 4 hours, quantitative measurement of the ROSs (hydroxyl radicals) is performed by washing the cells with phosphate buffer and then incubating them with 30 μM DCF-DA in buffer solution. At the end of a 15 minute incubation, excess DCF-DA is removed from the cells by washing, prior to measuring the fluorescence emitted.
Antioxidant activity measurements are performed using a (Hitachi F3010) spectrophotometer with excitation at 488 nm and measuring emission at 525 nm, and values are expressed in pmoles, by extrapolation from the calibration curve constructed using known quantities of DCF, and in relation to total cellular protein. Values are thus expressed in % ages with respect to the ROS content of the cells not subjected to treatment with BSO (control) to which are assigned a value of 100.
The Extracts 1 and 2, Teupolioside and Ascorbic Acid were solubilized in phosphate buffer 10 mM at pH 7.4, whereas trolox was solubilized in 0.1% of dimethylsulphoxide and culture medium.

3T3 fibroblasts = test: BSO-induced oxidative death of 3T3 fibroblasts (MTT); type: cell-based, BALB/c mouse; settings: 1 mM; BSO 200 μM, 24 hours
tyrosinase [1] = test: Tyrosinase inhibition, conversion of L-DOPA to DOPAquinone; type: biochemical; settings: 100 μg/ml
Description: (§1) The enzyme tyrosinase catalyses the reactions leading to melanin biosynthesis from tyrosine. […] Substances inhibiting tyrosinase activity produce a clearing/bleaching effect on the skin, since they block melanin synthesis. The method used to determine the inhibition of tyrosinase activity in the oxidation reaction of L-tyrosine to L-DOPA is that described in Kim et al. […] Biol. Pharm. […] The method applied for determination of the inhibition of tyrosinase activity in the conversion of L-DOPA to DOPAquinone is that described in Masamoto et al. (Mushroom tyrosinase inhibitory activity of esculetin isolated from seeds of Euphorbia lathyris L. Biosci. Biotechnol. Biochem., 67(3), 631-634, 2003).

tyrosinase [2] = test: Tyrosinase inhibition, oxidation of L-tyrosine to L-DOPA; type: biochemical; settings: 250 μg/ml
Description: as §1

[3] = Hydroxyl radical scavenger activity (Fenton reaction, luminol chemiluminescence); type: biochemical; settings: means of 6 independent assays
Description: (§2) Ajuga reptans Extracts 1 and 2, prepared as described in examples 1 and 2, and isoteupolioside have been used to assess in vitro antioxidant action with specific oxygen radical generating systems such as the superoxide anion (O2^−), the hydroxyl radical (HO^−), the peroxynitrite radical (ONOO^−) and the inhibition of lipid peroxidation. The superoxide anion has been measured by a chemiluminescent assay based on the hypoxanthine (HPX)/xanthine oxidase (XOD) reaction using the Lumimax Superoxide Anion Detection Kit (Stratagene, La Jolla, Calif., USA) and following the manufacturer's instructions. Hydroxyl radical scavenger activity has been measured by means of the Fenton reaction for the production of hydroxyl radicals and chemiluminescent dosage (using a Victor^3 chemiluminometer, Wallac, Finland) with luminol. Peroxynitrite ions have been determined by means of dosage with a spontaneous generator of peroxynitrites (3-morpholinosidnonimine hydrochloride; SIN-1) and a stable reagent for the nitroxyl ions (2-(4-carboxyphenyl)-4,4,5,5-tetramethylimidazoline-1-oxyl-3-oxide potassium salt PTIO spin trap) then dosed by means of electron spin resonance (ESR) using a Nippon Denshi JES-FR30. Lipid peroxidation has been generated using Fe^2+ induced-oxygen reactive species, and detected using thiobarbituric acid in accordance with Buege, J A & Aust, S D: Microsomal lipid peroxidation (Methods Enzymol.
The Extract 1 and the Extract 2 set forth in Table 4 are derived from Ajuga reptans cell cultures comprising the phenylpropanoids at 90% and 54%, respectively. The results are expressed as the concentration inhibiting 50% of activity (IC50), means of 6 independent assays.

[4] = Superoxide anion chemiluminescent assay (hypoxanthine/xanthine oxidase, Lumimax kit); type: biochemical; settings: means of 6 independent assays
Description: as §2, with “The” for “Ajuga reptans Extracts 1 and 2, prepared as described in examples 1 and 2, and isoteupolioside have been used to assess in vitro antioxidant action with specific oxygen radical generating systems such as the superoxide anion (O2^−), the hydroxyl radical (HO^−), the peroxynitrite radical (ONOO^−) and the inhibition of lipid peroxidation. The”
(§3) The results are expressed as the concentration inhibiting 50% of activity (IC50), means of 6 independent assays.

[5] = Peroxynitrite scavenging (SIN-1, PTIO spin trap, ESR); type: biochemical; settings: means of 6 independent assays
Description: as §2, with “The” for “Ajuga reptans Extracts 1 and 2, prepared as described in examples 1 and 2, and isoteupolioside have been used to assess in vitro antioxidant action with specific oxygen radical generating systems such as the superoxide anion (O2^−), the hydroxyl radical (HO^−), the peroxynitrite radical (ONOO^−) and the inhibition of lipid peroxidation. The”
as §3

Cc1c(C)c2c(c(C)c1O)CCC(C)(C(=O)O)O2 (stereo not shown) [Trolox]
% ROS in picomoles (A549 cells (ATCC-CCL185); 20 μM): 125 ± 8 %

O=C1O[C@H]([C@@H](O)CO)C(O)=C1O [Ascorbic acid, reference compound]
% survived cells (3T3 fibroblasts): 72.3% | % ROS in picomoles (A549 cells (ATCC-CCL185); 1 mM): 130 ± 10 %

O=c1cc(CO)occ1O [Kojic acid, reference compound]
Test LDOPA-DOPAquinone inhibitory activity (%) (tyrosinase [1]): 35% | Test L-tyrosine-DOPA inhibitory activity (%) (tyrosinase [2]): 94.1%

O=C1c2c(O)cccc2C([C@@H]2O[C@H](CO)[C@@H](O)[C@H](O)[C@H]2O)c2cc(CO)cc(O)c21 (stereo partly shown) [Aloin, reference compound]
Hydroxyl radial (IC50) [3]: 2.9 µg/mL | Superoxide radical (IC50) [4]: 7.6 µg/mL | Peroxynitrite radical (IC50) [5]: 12.3 µg/mL

Oc1cccc(O)c1 [Resorcinol, reference compound]
Test LDOPA-DOPAquinone inhibitory activity (%) (tyrosinase [1]): 0% | Test L-tyrosine-DOPA inhibitory activity (%) (tyrosinase [2]): 56.9%
